Data reported in patent US12509444B2, “Compounds and methods for CD73 modulation and indications therefor” (Plexxikon Inc., priority 2019, dated 2025).

How the values were obtained:
human CD73 = biological target: T1, human CD73 (Homo sapiens, UniProt P21589); assay: Inhibitor activity against CD73 in cell based assay (CD73 expressing CHO-K1 cells); settings: CHO-K1 cells expressing human CD73, 150 μM AMP, 4 hours of incubation; read-out: CHO-K1 CELL VARIANT: CD73 IC50
T1 construct: expressed in transfected cells
T1 sequence (P21589 27-549): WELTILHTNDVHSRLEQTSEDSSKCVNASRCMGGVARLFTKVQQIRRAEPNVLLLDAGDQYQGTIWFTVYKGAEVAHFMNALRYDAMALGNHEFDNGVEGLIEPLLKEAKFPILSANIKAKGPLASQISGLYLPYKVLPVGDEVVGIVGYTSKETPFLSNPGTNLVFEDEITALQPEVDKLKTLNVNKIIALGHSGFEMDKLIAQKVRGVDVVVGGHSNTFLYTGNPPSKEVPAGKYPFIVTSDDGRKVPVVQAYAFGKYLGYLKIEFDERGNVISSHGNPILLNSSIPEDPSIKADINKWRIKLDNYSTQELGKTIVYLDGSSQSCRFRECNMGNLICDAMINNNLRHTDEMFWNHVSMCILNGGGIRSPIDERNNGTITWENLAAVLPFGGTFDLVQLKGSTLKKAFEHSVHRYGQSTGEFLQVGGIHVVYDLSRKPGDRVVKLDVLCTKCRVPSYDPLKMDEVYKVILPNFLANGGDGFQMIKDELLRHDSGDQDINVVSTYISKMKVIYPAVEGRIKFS
Method in brief: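 Stably transfected CHO-K1 cells expressing human CD73 (1×10^4/well) incubated 4 h with compound (8-point 1:3 titration, top 10 μM final, 0.2% DMSO) and 150 μM AMP. Residual AMP in supernatant measured by CellTiter-Glo luminescence with 1 μM ATP after 30 min at room temperature; IC50 by nonlinear regression of percent inhibition vs high/low controls.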

[1] = biological target: T2, Human CD73 (amino acid residues 27-549) (Homo sapiens, UniProt P21589); assay: CD73 enzymatic assay (luciferase-based indirect assay, CellTiter-Glo); format: biochemical; settings: 0.4 nM CD73, 150 μM AMP, 1 hour at room temperature
T2 construct: Human CD73 (amino acid residues 27-549); His tag (N); made in house; host or cells: E. coli
T2 sequence (P21589 27-549): T1 sequence (P21589 27-549)
Method in brief: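 His-tagged human CD73 (27-549) from E. coli, 0.4 nM, with 150 μM AMP in 50 mM HEPES pH 7.4, 0.01% Tween 20; 1 h at room temperature. AMP remaining read by CellTiter-Glo 2.0 luminescence with 1 μM final ATP after 30 min. IC50 from nonlinear regression of % inhibition.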

Compound | IC50 (human CD73) | IC50 [1]
CC1(C)CCCC1NC(=O)O[C@@H]1CCN(c2cn[nH]c(=O)c2Cl)C1 (stereo partly drawn) [P-0350, (R)-1-(5-chloro-6-oxo-1,6-dihydropyridazin-4-yl)pyrrolidin-3-yl (2,2-dimethylcyclopentyl)carbamate] | 0.001 to 10 µM | 0.001 to 10 µM
CC1(C)CC(NC(=O)O[C@@H]2CCN(c3cn[nH]c(=O)c3Cl)C2)C1 [P-0351, (R)-1-(5-chloro-6-oxo-1,6-dihydropyridazin-4-yl)pyrrolidin-3-yl (3,3-dimethylcyclobutyl)carbamate] | 0.001 to 10 µM | 0.001 to 10 µM
O=C(N[C@H]1CC[C@@H](Nc2ncccn2)CC1)O[C@@H]1CCN(c2cn[nH]c(=O)c2Cl)C1 [P-0352, (R)-1-(5-chloro-6-oxo-1,6-dihydropyridazin-4-yl)pyrrolidin-3-yl ((1s,4s)-4-(pyrimidin-2-ylamino)cyclohexyl)carbamate] | 0.001 to 10 µM | 0.001 to 10 µM
CC(=O)N1CC[C@@H](NC(=O)O[C@@H]2CCN(c3cn[nH]c(=O)c3Cl)C2)C1 [P-0353, (R)-1-(5-chloro-6-oxo-1,6-dihydropyridazin-4-yl)pyrrolidin-3-yl ((R)-1-acetylpyrrolidin-3-yl)carbamate] | 0.001 to 10 µM | 0.001 to 10 µM
O=C(N[C@@H]1CCN(C(=O)NC2CCCCC2)C1)O[C@@H]1CCN(c2cn[nH]c(=O)c2Cl)C1 [P-0354, (R)-1-(5-chloro-6-oxo-1,6-dihydropyridazin-4-yl)pyrrolidin-3-yl ((R)-1-(cyclohexylcarbamoyl)pyrrolidin-3-yl)carbamate] | 0.001 to 10 µM | 0.001 to 10 µM
CS(=O)(=O)N1CC[C@@H](NC(=O)O[C@@H]2CCN(c3cn[nH]c(=O)c3Cl)C2)C1 [P-0355, (R)-1-(5-chloro-6-oxo-1,6-dihydropyridazin-4-yl)pyrrolidin-3-yl ((R)-1-(methylsulfonyl)pyrrolidin-3-yl)carbamate] | 0.001 to 10 µM | 0.001 to 10 µM
CC(C)(O)[C@H]1CC[C@H](NC(=O)O[C@@H]2CCN(c3cn[nH]c(=O)c3Cl)C2)CC1 [P-0356, (R)-1-(5-chloro-6-oxo-1,6-dihydropyridazin-4-yl)pyrrolidin-3-yl ((1r,4R)-4-(2-hydroxypropan-2-yl)cyclohexyl)carbamate] | 0.001 to 10 µM | 0.001 to 10 µM
CC1(NC(=O)c2ccccc2)CCC(NC(=O)O[C@@H]2CCN(c3cn[nH]c(=O)c3Cl)C2)CC1 (stereo partly drawn) [P-0357, (R)-1-(5-chloro-6-oxo-1,6-dihydropyridazin-4-yl)pyrrolidin-3-yl (4-benzamido-4-methylcyclohexyl)carbamate] | 0.001 to 10 µM | 0.001 to 10 µM
CC1(NS(C)(=O)=O)CCC(NC(=O)O[C@@H]2CCN(c3cn[nH]c(=O)c3Cl)C2)CC1 (stereo partly drawn) [P-0358, (R)-1-(5-chloro-6-oxo-1,6-dihydropyridazin-4-yl)pyrrolidin-3-yl (4-methyl-4-(methylsulfonamido)cyclohexyl)carbamate] | 0.001 to 10 µM | 0.001 to 10 µM
O=C(N[C@@H]1CCN(C(=O)c2ccccc2)C1)O[C@@H]1CCN(c2cn[nH]c(=O)c2Cl)C1 [P-0359, (R)-1-(5-chloro-6-oxo-1,6-dihydropyridazin-4-yl)pyrrolidin-3-yl ((R)-1-benzoylpyrrolidin-3-yl)carbamate] | 0.001 to 10 µM | 0.001 to 10 µM
O=C(NC1(C(F)(F)F)CCCC1)O[C@@H]1CCN(c2cn[nH]c(=O)c2Cl)C1 [P-0360, (R)-1-(5-chloro-6-oxo-1,6-dihydropyridazin-4-yl)pyrrolidin-3-yl (1-(trifluoromethyl)cyclopentyl) carbamate] | 0.001 to 10 µM | 0.001 to 10 µM
N#CC1(NC(=O)O[C@@H]2CCN(c3cn[nH]c(=O)c3Cl)C2)CCCC1 [P-0361, (R)-1-(5-chloro-6-oxo-1,6-dihydropyridazin-4-yl)pyrrolidin-3-yl (1-cyanocyclopentyl)carbamate] | 0.001 to 10 µM | 0.001 to 10 µM
O=C(NC1(c2ccc(F)cc2)CC1)O[C@@H]1CCN(c2cn[nH]c(=O)c2Cl)C1 [P-0362, (R)-1-(5-chloro-6-oxo-1,6-dihydropyridazin-4-yl)pyrrolidin-3-yl (1-(4-fluorophenyl)cyclopropyl) carbamate] | 0.001 to 10 µM | 0.001 to 10 µM
C=Cc1c(N2CC[C@@H](OC(=O)NC3CCCC3)C2)cn[nH]c1=O [P-0363, (R)-1-(6-oxo-5-vinyl-1,6-dihydropyridazin-4-yl)pyrrolidin-3-yl cyclopentylcarbamate] | 0.001 to 10 µM | 0.001 to 10 µM
O=C(N[C@H]1CC[C@H](NC(=O)c2ccccc2)C1)O[C@@H]1CCN(c2cn[nH]c(=O)c2Cl)C1 [P-0364, (R)-1-(5-chloro-6-oxo-1,6-dihydropyridazin-4-yl)pyrrolidin-3-yl ((1S,3S)-3-benzamidocyclopentyl) carbamate] | 0.001 to 10 µM | 0.001 to 10 µM
O=C(N[C@H]1CC[C@H](NS(=O)(=O)c2ccccc2F)C1)O[C@@H]1CCN(c2cn[nH]c(=O)c2Cl)C1 [P-0365, (R)-1-(5-chloro-6-oxo-1,6-dihydropyridazin-4-yl)pyrrolidin-3-yl ((1S,3S)-3-((2-fluorophenyl)sulfonamido)cyclopentyl)carbamate] | 0.001 to 10 µM | 0.001 to 10 µM
COc1ccc(S(=O)(=O)C[C@H]2CC[C@H](NC(=O)O[C@@H]3CCN(c4cn[nH]c(=O)c4Cl)C3)CC2)cc1 [P-0366, (R)-1-(5-chloro-6-oxo-1,6-dihydropyridazin-4-yl)pyrrolidin-3-yl ((1r,4R)-4-(((4-methoxyphenyl)sulfonyl)methyl)cyclohexyl)carbamate] | 0.001 to 10 µM | 0.001 to 10 µM
O=C(N[C@@H]1CC[C@H]1C(F)(F)F)O[C@@H]1CCN(c2cn[nH]c(=O)c2Cl)C1 [P-0367, (R)-1-(5-chloro-6-oxo-1,6-dihydropyridazin-4-yl)pyrrolidin-3-yl ((1R,2R)-2-(trifluoromethyl)cyclobutyl) carbamate] | 0.001 to 10 µM | 0.001 to 10 µM
O=C(N[C@H]1C[C@@](O)(C(F)(F)F)C1)O[C@@H]1CCN(c2cn[nH]c(=O)c2Cl)C1 [P-0368, (R)-1-(5-chloro-6-oxo-1,6-dihydropyridazin-4-yl)pyrrolidin-3-yl ((1r,3r)-3-hydroxy-3-(trifluoromethyl)cyclobutyl)carbamate] | 0.001 to 10 µM | 0.001 to 10 µM
O=C(NC1CCN(C(=O)c2ccccc2)CC1)O[C@@H]1CCN(c2cn[nH]c(=O)c2Cl)C1 [P-0369, (R)-1-(5-chloro-6-oxo-1,6-dihydropyridazin-4-yl)pyrrolidin-3-yl (1-benzoylpiperidin-4-yl)carbamate] | 0.001 to 10 µM | 0.001 to 10 µM
O=C(NC1CCN(C(=O)C2CCC2)CC1)O[C@@H]1CCN(c2cn[nH]c(=O)c2Cl)C1 [P-0370, (R)-1-(5-chloro-6-oxo-1,6-dihydropyridazin-4-yl)pyrrolidin-3-yl (1-(cyclobutanecarbonyl)piperidin-4-yl)carbamate] | 0.001 to 10 µM | 0.001 to 10 µM
O=C(NC1CCN(C(=O)c2ccno2)CC1)O[C@@H]1CCN(c2cn[nH]c(=O)c2Cl)C1 [P-0371, (R)-1-(5-chloro-6-oxo-1,6-dihydropyridazin-4-yl)pyrrolidin-3-yl (1-(isoxazole-5-carbonyl)piperidin-4-yl)carbamate] | 0.001 to 10 µM | 0.001 to 10 µM
CC(C)C(=O)N1CCC(NC(=O)O[C@@H]2CCN(c3cn[nH]c(=O)c3Cl)C2)CC1 [P-0372, (R)-1-(5-chloro-6-oxo-1,6-dihydropyridazin-4-yl)pyrrolidin-3-yl (1-isobutyrylpiperidin-4-yl)carbamate] | 0.001 to 10 µM | 0.001 to 10 µM
CC(C)(C)C(=O)N1CCC(NC(=O)O[C@@H]2CCN(c3cn[nH]c(=O)c3Cl)C2)CC1 [P-0373, (R)-1-(5-chloro-6-oxo-1,6-dihydropyridazin-4-yl)pyrrolidin-3-yl (1-pivaloylpiperidin-4-yl)carbamate] | 0.001 to 10 µM | 0.001 to 10 µM
O=C(NC1CCN(C(=O)Cc2ccccc2)CC1)O[C@@H]1CCN(c2cn[nH]c(=O)c2Cl)C1 [P-0374, (R)-1-(5-chloro-6-oxo-1,6-dihydropyridazin-4-yl)pyrrolidin-3-yl (1-(2-phenylacetyl)piperidin-4-yl)carbamate] | 0.001 to 10 µM | 0.001 to 10 µM
CC(C)CC(=O)N1CCC(NC(=O)O[C@@H]2CCN(c3cn[nH]c(=O)c3Cl)C2)CC1 [P-0375, (R)-1-(5-chloro-6-oxo-1,6-dihydropyridazin-4-yl)pyrrolidin-3-yl (1-(3-methylbutanoyl)piperidin-4-yl)carbamate] | 0.001 to 10 µM | 0.001 to 10 µM
CCC(=O)N1CCC(NC(=O)O[C@@H]2CCN(c3cn[nH]c(=O)c3Cl)C2)CC1 [P-0376, (R)-1-(5-chloro-6-oxo-1,6-dihydropyridazin-4-yl)pyrrolidin-3-yl (1-propionylpiperidin-4-yl)carbamate] | 0.001 to 10 µM | 0.001 to 10 µM
